Reference: patent US20250304620A1, “ANTIMICROBIAL PEPTIDE AND APPLICATION THEREOF” (priority 2023, published 2025)
Converted amounts (≈) assume the structure as drawn. Like-named read-outs stand apart in the source and are kept apart here. Marks after values point to notes of the source that are not given here. Non-standard residues stand in square brackets, D forms with d. Residues, ends and D or L forms follow the SMILES beside them. PEG200 = polyethylene glycol 200, conjugated to the C-terminus; dPhe(3,4-F2) = N[C@H](Cc1ccc(F)c(F)c1)C(=O)O; 2Nal = N[C@@H](Cc1ccc2ccccc2c1)C(=O)O

Columns and labels:
[1] = system: Pseudomonas aeruginosa ATCC 27853; test: Injectable formulations on mice infected with peritonitis; format: in vivo, ICR mice; conditions: twice a day for 3 days; for Number of mice that died on each day after infection: day 1 / Number of mice that died on each day after infection: day 2 / Number of mice that died on each day after infection: day 3 / Number of mice that died on each day after infection: day 4 / Number of mice that died on each day after infection: day 5 / Average survival times (Days): n = 10; for Average survival times (Days): observed for 14 d
In short: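 ICR mice of both sexes (10 per group) infected intraperitoneally with 0.2 mL P. aeruginosa ATCC 27853 at 1×10^9 CFU/mL. Injectable formulations dosed by body weight via tail vein twice daily for 3 days; deaths and survival time recorded over 14 d.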

[2] = system: Staphylococcus aureus (NRS 384); test: microbe, parasite or virus in culture; format: cell-based
In short: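 CLSI broth microdilution with serial twofold dilutions gave MICs against S. aureus NRS 384, with 5 parallel replicates. Levofloxacin and the AMP Cbf-K16 served as positive controls.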

[3] = system: carbapenem-resistant Pseudomonas aeruginosa (CRPA); format: cell-based
In short: (§1)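 Antimicrobial peptide susceptibility is measured against clinically isolated resistant bacteria using the CLSI microdilution method.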

[4] = system: Methicillin-resistant Staphylococcus aureus (MRSA); format: cell-based
In short: as §1

[5] = system: vancomycin-resistant Enterococcus (VRE); format: cell-based
In short: as §1

[6] = system: carbapenem-resistant Escherichia coli (CREC); format: cell-based
In short: as §1

[7] = system: carbapenem-resistant Klebsiella pneumoniae (CRKP); format: cell-based
In short: as §1

[8] = system: Methicillin-resistant Staphylococcus aureus (MRSA); format: in vivo, ICR mice; conditions: 0.1 mL twice a day for 4 days, mouse back skin infection
Method: (§2) Both female and male ICR mice were used in the test, half of the female and male mice were taken and randomly assigned into groups, with 10 mice in each group, and kept in separate cages. The mice were divided into a blank group, a model group, a positive control Methicillin group, and topical formulation groups of AMPs LV-1 to LV-30. Suspensions of Methicillin-sensitive Staphylococcus aureus (NRS 384) and Methicillin-resistant Staphylococcus aureus (MRSA) were prepared, and their concentrations were adjusted to a concentration of 5×10^6 CFU/mL for subsequent use. Hair on backs of the mice was shaved with a shaver, wound was created on back skin of each mouse using a biopsy punch, and the wound was then infected with Methicillin-sensitive Staphylococcus aureus and Methicillin-resistant Staphylococcus aureus (0.1 mL, 5×10^6 CFU/mL) to establish infection models. Except for the blank group and the model group, all other groups received corresponding topical formulations applied directly to the infected areas, with a dose of 0.1 mL, twice a day for 4 consecutive days. On the day following the final administration, skin from the infected sites of each group was aseptically collected, and an antibacterial rate was calculated.

[9] = system: Methicillin-sensitive Staphylococcus aureus (NRS 384); format: in vivo, ICR mice; conditions: 0.1 mL twice a day for 4 days, mouse back skin infection
Method: as §2

## CC(=O)N[C@H](CCCCN)C(=O)N[C@H](CCCCN)C(=O)N[C@H](CC(C)C)C(=O)N[C@H](CC(C)C)C(=O)N[C@H](Cc1ccc(F)c(F)c1)C(=O)N[C@H](CCCNC(=N)N)C(=O)N[C@H](CC(C)C)C(=O)N[C@H](CCCCN)C(=O)N[C@H](Cc1ccc(F)c(F)c1)C(=O)N[C@H](CCCNC(=N)N)C(=O)N[C@H](CCCCN)C(N)=O [LV-25] (Ac-[dK][dK][dL][dL][dPhe(3,4-F2)][dR][dL][dK][dPhe(3,4-F2)][dR][dK]-NH2)
[1]; 0.2 mg/kg via tail vein
  Number of mice that died on each day after infection: day 1: 2 Mouse
  Number of mice that died on each day after infection: day 2: 1 Mouse
  Number of mice that died on each day after infection: day 3: 1 Mouse
  Number of mice that died on each day after infection: day 4: 1 Mouse
  Number of mice that died on each day after infection: day 5: 1 Mouse
  Average survival times (Days): 7.2** Days
[1]; 1 mg/kg via tail vein
  Number of mice that died on each day after infection: day 1: 0 Mouse
  Number of mice that died on each day after infection: day 2: 1 Mouse
  Number of mice that died on each day after infection: day 3: 1 Mouse
  Number of mice that died on each day after infection: day 4: 0 Mouse
  Number of mice that died on each day after infection: day 5: 1 Mouse
  Average survival times (Days): 10.8**** Days
[1]; 5 mg/kg via tail vein
  Number of mice that died on each day after infection: day 1: 0 Mouse
  Number of mice that died on each day after infection: day 2: 3 Mouse
  Number of mice that died on each day after infection: day 3: 0 Mouse
  Number of mice that died on each day after infection: day 4: 0 Mouse
  Number of mice that died on each day after infection: day 5: 0 Mouse
  Average survival times (Days): 10.4**** Days
[1]; tail vein, observed 14 d
  survival time of mice infected with Pseudomonas aeruginosa: superior to those of the Levofloxacin group
[2]; NRS 384
  MIC against Staphylococcus aureus (NRS 384): 1 µg/mL (≈ 0.629 µM)
[3]; carbapenem-resistant (CRPA)
  MIC CRPA: 4 µg/mL (≈ 2.52 µM)
[4]; Methicillin-resistant
  MIC MRSA: 2 µg/mL (≈ 1.26 µM)
[5]
  MIC VRE: 8 µg/mL (≈ 5.03 µM)
[6]; carbapenem-resistant (CREC)
  MIC CREC: 4 µg/mL (≈ 2.52 µM)
[7]; carbapenem-resistant (CRKP)
  MIC CRKP: 8 µg/mL (≈ 5.03 µM)

## Ac-RKLLXRLKXRK-PEG200 [LV-26] (Ac-RKLL[2Nal]RLK[2Nal]RK-PEG200) [polyethylene glycol 200 conjugated to C-terminal; X=3-(2-naphthyl)-alanine]
[1]; 1 mg/kg via tail vein
  Number of mice that died on each day after infection: day 1: 1 Mouse
  Number of mice that died on each day after infection: day 2: 1 Mouse
  Number of mice that died on each day after infection: day 3: 1 Mouse
  Number of mice that died on each day after infection: day 4: 1 Mouse
  Number of mice that died on each day after infection: day 5: 1 Mouse
  Average survival times (Days): 8.5** Days
[2]; Staphylococcus aureus (NRS 384)
  MIC against Staphylococcus aureus (NRS 384): 1 µg/mL
[8]; topical formulation 0.2 mg/mL
  Inhibition rate against Methicillin-resistant Staphylococcus aureus (%): 86.51%
[8]; topical formulation 1 mg/mL
  Inhibition rate against Methicillin-resistant Staphylococcus aureus (%): 86.79%
[8]; topical formulation 5 mg/mL
  Inhibition rate against Methicillin-resistant Staphylococcus aureus (%): 87.56%
[9]; topical formulation 0.2 mg/mL
  Inhibition rate against Methicillin-sensitive Staphylococcus aureus (%): 96.35%
[9]; topical formulation 1 mg/mL
  Inhibition rate against Methicillin-sensitive Staphylococcus aureus (%): 96.92%
[9]; topical formulation 5 mg/mL
  Inhibition rate against Methicillin-sensitive Staphylococcus aureus (%): 97.87%
[3]; drug-resistant strain CRPA
  MIC CRPA: 4 µg/mL
[4]; drug-resistant strain MRSA
  MIC MRSA: 4 µg/mL
[5]; drug-resistant strain VRE
  MIC VRE: 2 µg/mL
[6]; drug-resistant strain CREC
  MIC CREC: 8 µg/mL
[7]; drug-resistant strain CRKP
  MIC CRKP: 2 µg/mL
